Data: US7713994B2 (Wyeth LLC, priority 2005, dated 2010)
pIC50: −log10 of the molar value. Where two headings read alike, the source gives them in different places.

Experiments:
cyclin D1/cdk 4 enzyme = biological target: T1, cyclin D1/cdk 4 enzyme (Homo sapiens, UniProt P11802); test: CDK4 ELISA kinase assay (phospho-Rb ser 795 detection); assay type: biochemical
T1 construct: made in house; host or cells: Sf9 insect cells, recombinant baculovirus
How it was run: (§1)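 Wells were coated overnight with GST-Rb C-terminal fragment, then blocked. Compound (10 ug/ml final) and cyclin/CDK enzyme from baculovirus-infected Sf9 cells with 200 μM ATP reacted 1 h at 30° C. Ser795 phosphorylation was detected by ELISA at 450 nm.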

SK-UT-1B = test: In Vitro Cellular Activity (Table III), SK-UT-1B; assay type: cell-based; conditions: SK-UT-1B cells
MCF-7 = test: Cytotoxicity assay (SRB), MCF-7; assay type: cell-based; conditions: MCF-7 cells, SRB, read-out: In Vitro Cellular Activity IC50 MCF-7
How it was run: (§2)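 Plate cells, let them attach overnight, add compound dilutions in RPMI 1640/5% FBS, and incubate 3 days (BT474 6 days). Then fix with TCA, stain with SRB, dissolve the dye in Tris and read at 540 nm.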

cyclin B/CDK1 enzyme = biological target: T2, cyclin B/CDK1 enzyme (Homo sapiens, UniProt P06493); test: CDK1 ELISA kinase assay (phospho-Rb ser 795 detection); assay type: biochemical
T2 construct: purchased New England BioLabs; host or cells: Sf9 insect cells, recombinant baculovirus
How it was run: as §1

cyclin E/CDK2 enzyme = biological target: T3, cyclin E/CDK2 enzyme (Homo sapiens, UniProt P24941); test: CDK2 ELISA kinase assay (phospho-Rb ser 795 detection); assay type: biochemical
T3 construct: made in house; host or cells: Sf9 insect cells, recombinant baculovirus
How it was run: as §1

HCT-116 = test: Cytotoxicity assay (SRB), HCT-116; assay type: cell-based; conditions: HCT116 cells, SRB, read-out: In Vitro Cellular Activity IC50 HCT116
How it was run: as §2

BT474 = test: Cytotoxicity assay (SRB), BT474; assay type: cell-based
How it was run: as §2

LoVo = test: Cytotoxicity assay (SRB), LoVo; assay type: cell-based; conditions: LoVo cells, SRB, read-out: In Vitro Cellular Activity IC50 LOVO
How it was run: as §2

[1] = I.V. and P.O. Dosing in Mice; assay type: in vivo; conditions: for AUC(0-inf) / bioavailability: mouse, in vivo; for bioavailability: po 50 mg/kg vs i.v. 2 mg/kg
[2] = In Vitro Enzyme Assays, 200 μM ATP, read-out: CDK4 IC50
[3] = Homo sapiens, MCF7, 72 h, three days
[4] = In Vitro Enzyme Assays, read-out: CDK1 IC50
[5] = In Vitro Enzyme Assays, read-out: CDK2 IC50
[6] = Homo sapiens, HCT-116, 72 h, three days
[7] = Homo sapiens, BT-474, 144 h, BT474 cells, SRB, 6 days; read-out: In Vitro Cellular Activity IC50 BT474
[8] = Homo sapiens, LoVo, 72 h, three days
[9] = iv, 2 mg/kg, dose i.v. 2 mg/kg, read-out: aucinf obs (i.v.)
[10] = po, 50 mg/kg, dose po 50 mg/kg, read-out: aucinf obs (po)
[11] = dose i.v. 2 mg/kg, second value, (methocel/tween)

T2 sequence (P06493 whole entry): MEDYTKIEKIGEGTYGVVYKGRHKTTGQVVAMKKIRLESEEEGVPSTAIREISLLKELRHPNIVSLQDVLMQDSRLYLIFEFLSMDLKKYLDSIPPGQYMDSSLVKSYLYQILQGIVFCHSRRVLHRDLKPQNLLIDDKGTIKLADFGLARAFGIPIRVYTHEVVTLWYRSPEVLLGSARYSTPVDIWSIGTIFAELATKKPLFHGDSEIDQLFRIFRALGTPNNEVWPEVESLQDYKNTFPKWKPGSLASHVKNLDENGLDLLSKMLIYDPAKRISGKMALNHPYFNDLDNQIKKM
T2 sequence (P14635 whole entry partner): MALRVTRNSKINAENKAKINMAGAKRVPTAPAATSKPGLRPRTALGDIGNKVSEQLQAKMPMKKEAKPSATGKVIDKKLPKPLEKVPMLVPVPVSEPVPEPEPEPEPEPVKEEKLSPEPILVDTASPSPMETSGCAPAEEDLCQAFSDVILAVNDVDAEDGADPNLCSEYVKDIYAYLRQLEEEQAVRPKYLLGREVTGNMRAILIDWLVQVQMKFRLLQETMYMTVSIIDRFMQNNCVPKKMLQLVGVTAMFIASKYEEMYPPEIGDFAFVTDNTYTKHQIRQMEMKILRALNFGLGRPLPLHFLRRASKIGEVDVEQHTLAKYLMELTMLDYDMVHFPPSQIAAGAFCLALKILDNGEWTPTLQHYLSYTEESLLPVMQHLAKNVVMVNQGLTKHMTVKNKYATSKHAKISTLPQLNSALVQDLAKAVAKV
T1 sequence (P11802 whole entry, species assumed): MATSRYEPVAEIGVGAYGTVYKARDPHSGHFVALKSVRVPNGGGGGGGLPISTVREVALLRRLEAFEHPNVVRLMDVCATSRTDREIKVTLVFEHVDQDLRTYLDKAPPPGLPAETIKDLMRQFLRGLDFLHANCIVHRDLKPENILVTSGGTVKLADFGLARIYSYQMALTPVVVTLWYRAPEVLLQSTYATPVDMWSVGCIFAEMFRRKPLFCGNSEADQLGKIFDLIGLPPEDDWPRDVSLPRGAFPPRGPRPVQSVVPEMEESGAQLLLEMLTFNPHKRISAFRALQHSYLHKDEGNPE
T1 sequence (P24385 whole entry partner, species assumed): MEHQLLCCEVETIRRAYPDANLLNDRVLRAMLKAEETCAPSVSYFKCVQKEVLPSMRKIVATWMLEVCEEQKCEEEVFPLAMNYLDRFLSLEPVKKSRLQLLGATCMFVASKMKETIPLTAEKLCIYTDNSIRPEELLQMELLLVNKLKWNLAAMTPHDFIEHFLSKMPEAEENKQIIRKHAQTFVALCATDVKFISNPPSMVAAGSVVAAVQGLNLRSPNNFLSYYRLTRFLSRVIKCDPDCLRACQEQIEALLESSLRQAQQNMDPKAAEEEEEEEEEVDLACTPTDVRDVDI

**Q.** With `CN(C)Cc1ccc(N/C=C2\C(=O)NC(=O)c3ccccc32)cc1` [Example 25, (4Z)-4-[({4[(Dimethylamino)methyl]phenyl}amino)methylene]isoquinolin-1,3(2H,4H)-dione] as the compound, how does the pIC50 (cyclin D1/cdk 4 enzyme; [2]) read?
**A.** Its pIC50 is 5.18.

**Q.** And the pIC50 (SK-UT-1B; Homo sapiens, Skut1B)?
**A.** Its pIC50 is 4.79.

**Q.** And the pIC50 (MCF-7; [3])?
**A.** Its pIC50 is 5.25.

**Q.** And the pIC50 (cyclin B/CDK1 enzyme; [4])?
**A.** Its pIC50 is less than 4.54.

**Q.** What about the pIC50 (cyclin E/CDK2 enzyme; [5]) of the same compound?
**A.** Its pIC50 is 4.64.

**Q.** What about the pIC50 (HCT-116; [6]) of the same compound?
**A.** Its pIC50 is 4.94.

**Q.** With “(4Z)-4-[({3-Chloro-4-{(4chlorobenzyl)oxy]phenyl}amino)methylene]isoquinoline-1,3(2H,4H-dione [Example 15]” as the compound, how does the pIC50 (SK-UT-1B) read?
**A.** Its pIC50 is 4.94.

**Q.** And the pIC50 (MCF-7; three days)?
**A.** Its pIC50 is 4.55.

**Q.** What about the pIC50 (BT474; BT474 cells, SRB, 6 days; read-out: In Vitro Cellular Activity IC50 BT474) of the same compound?
**A.** Its pIC50 is less than 4.30.

**Q.** What about the pIC50 (LoVo; three days) of the same compound?
**A.** Its pIC50 is 4.30.

**Q.** What about the pIC50 (HCT-116; three days) of the same compound?
**A.** Its pIC50 is 4.99.

**Q.** Which results are given for `CN1CCN(c2ccc(N/C=C3\C(=O)NC(=O)c4ccccc43)cc2)CC1` [compound 4]?
**A.** pIC50 (SK-UT-1B; Homo sapiens, Skut1B): 4.90; pIC50 (MCF-7; [3]): 5.26; pIC50 (cyclin B/CDK1 enzyme; [4]): < 4.55; pIC50 (BT474; [7]): 4.74; pIC50 (LoVo; [8]): 4.89; pIC50 (HCT-116; [6]): 5.04

**Q.** Which results are given for `O=C1NC(=O)c2ccccc2/C1=C/Nc1ccc(CN2CCOCC2)cc1` [Example 19, (4Z)-4-({[4-(Morpholin-4-ylmethyl)phenyl]amino}methylene)isoquinoline-1,3(2H,4H)-dione]?
**A.** pIC50 (cyclin D1/cdk 4 enzyme; [2]): 4.97; pIC50 (SK-UT-1B; Homo sapiens, Skut1B): 4.67; pIC50 (MCF-7; [3]): 4.80; pIC50 (cyclin B/CDK1 enzyme; [4]): < 4.57; pIC50 (cyclin E/CDK2 enzyme; [5]): 4.67; pIC50 (HCT-116; [6]): 4.70

**Q.** With `O=C1NC(=O)c2ccccc2/C1=C/Nc1cccc(CCN2CCCC2)c1` [Example 22, (4Z)-4-({[3-(2-Pyrrolidin-1-ylethyl)phenyl]amino}methylene)isoquinoline-1,3(2H,4H)-dione] as the compound, how does the pIC50 (SK-UT-1B; Homo sapiens, Skut1B) read?
**A.** The pIC50 was 5.27.

**Q.** And the pIC50 (MCF-7; [3])?
**A.** Its pIC50 is 5.00.

**Q.** What about the pIC50 (BT474; [7]) of the same compound?
**A.** Its pIC50 is 4.68.

**Q.** What about the pIC50 (LoVo; [8]) of the same compound?
**A.** Its pIC50 is 4.72.

**Q.** What about the pIC50 (HCT-116; [6]) of the same compound?
**A.** The pIC50 was 4.96.

**Q.** With `O=C1NC(=O)c2ccc(I)cc2/C1=C/NCc1cc(O)c(-c2ccoc2)cn1` [Example 527, (4Z)-{[(5-Furan-3-yl-4-hydroxy-pyridin-2-ylmethyl)-amino]-methylene}-6-iodo-4H-isoquinoline-1,3-dione] as the compound, how does the pIC50 (cyclin D1/cdk 4 enzyme; In Vitro Enzyme Assay, cyclin D1/cdk 4, read-out: CDK4 IC50) read?
**A.** The pIC50 was 7.52.

**Q.** And the Cl_obs ([1]; dose i.v. 2 mg/kg)?
**A.** Its Cl_obs is 5 mL/min/kg.

**Q.** What about the Vss_obs ([1]; dose i.v. 2 mg/kg) of the same compound?
**A.** Its Vss_obs is 0.5 L/kg.

**Q.** What about the HL_Lambda_z ([1]; dose po 50 mg/kg) of the same compound?
**A.** The HL_Lambda_z was 3.4 h.

**Q.** What about the AUC(0-inf) [1, 9] of the same compound?
**A.** The AUC(0-inf) was 6060 ng·h/mL.

**Q.** And the AUC(0-inf) [1, 10]?
**A.** Its AUC(0-inf) is 1400 ng·h/mL.

**Q.** And the bioavailability ([1]; po, 50 mg/kg)?
**A.** Its bioavailability is 0.9%.

**Q.** What about the pIC50 (MCF-7; Homo sapiens, MCF7, 72 h, 3 days) of the same compound?
**A.** Its pIC50 is 5.57.

**Q.** What about the pIC50 (cyclin B/CDK1 enzyme; In Vitro Enzyme Assay, cyclin B/CDK1, read-out: CDK1 IC50) of the same compound?
**A.** Its pIC50 is 4.87.

**Q.** And the melting point?
**A.** Its melting point is 213 to 228 °C (dec.).

**Q.** And the pIC50 (cyclin E/CDK2 enzyme; In Vitro Enzyme Assay, cyclin E/CDK2, read-out: CDK2 IC50)?
**A.** Its pIC50 is 5.64.

**Q.** What about the pIC50 (BT474; Homo sapiens, BT-474, 144 h, BT474 cells, 6 days, SRB; read-out: In Vitro Cellular Activity IC50 BT474) of the same compound?
**A.** Its pIC50 is 7.05.

**Q.** What about the pIC50 (LoVo; Homo sapiens, LoVo, 72 h, 3 days) of the same compound?
**A.** The pIC50 was 6.31.

**Q.** What about the pIC50 (HCT-116; Homo sapiens, HCT-116, 72 h, 3 days) of the same compound?
**A.** Its pIC50 is 6.26.

**Q.** Which results are given for `CCCOc1cnc(CNC=C2C(=O)NC(=O)c3ccc(I)cc32)cc1O` [Example 364, 4-{[(4-Hydroxy-5-propoxy-pyridin-2-ylmethyl)-amino]-methylene}-6-iodo-4H-isoquinoline-1,3-dione]?
**A.** pIC50 (cyclin D1/cdk 4 enzyme; [2]): 7.52; Cl_obs ([1]; dose i.v. 2 mg/kg): 3 mL/min/kg; Vss_obs ([1]; dose i.v. 2 mg/kg): 0.2 L/kg; Cl_obs [1, 11]: 2.1 mL/min/kg; Vss_obs [1, 11]: 0.1 L/kg; HL_Lambda_z ([1]; dose po 50 mg/kg): 1.8 h; HL_Lambda_z ([1]; dose po 50 mg/kg, second value, (methocel/tween)): 2.4 h; AUC(0-inf) [1, 9]: 11000 ng·h/mL; AUC(0-inf) ([1]; iv, 2 mg/kg, dose i.v. 2 mg/kg, second value, (methocel/tween), read-out: aucinf obs (i.v.)): 15800 ng·h/mL; AUC(0-inf) [1, 10]: 17200 ng·h/mL; AUC(0-inf) ([1]; po, 50 mg/kg, dose po 50 mg/kg, second value, (methocel/tween), read-out: aucinf obs (po)): 5350 ng·h/mL; bioavailability ([1]; po, 50 mg/kg): 6.3%; bioavailability ([1]; po, 50 mg/kg, second value, (methocel/tween)): 1.4%; pIC50 (MCF-7; [3]): 6.06; pIC50 (cyclin B/CDK1 enzyme; [4]): 4.60; pIC50 (cyclin E/CDK2 enzyme; [5]): 5.80; pIC50 (BT474; [7]): 6.47; pIC50 (LoVo; [8]): 6.28; pIC50 (HCT-116; [6]): 6.14
